Reference: patent publication US20230339851A1, “CXCR6 SULFONAMIDE COMPOUNDS” (CHEMOCENTRYX, INC., priority 2022, published 2023)
pIC50: −log10 of the molar value.

molecular target: T1, human CXCR6 (Homo sapiens, UniProt O00574); test: Radioligand Binding Assay (125I-CXCL16 displacement); conditions: L1.2 cells stably transfected with human CXCR6 cDNA, 0.1 nM 125I-CXCL16, 4° C., three-hour incubation; read-out: Potency (IC50)
T1 construct: expressed in transfected cells
Summary of the method: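 Displacement of 0.1 nM 125I-CXCL16 from human CXCR6 stably expressed in L1.2 cells was measured after a 3 h, 4 °C incubation in HBSS with 0.1% BSA. Filter-bound cpm were counted, and IC50 values came from a 3-parameter nonlinear fit.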

T1 sequence (O00574 whole entry): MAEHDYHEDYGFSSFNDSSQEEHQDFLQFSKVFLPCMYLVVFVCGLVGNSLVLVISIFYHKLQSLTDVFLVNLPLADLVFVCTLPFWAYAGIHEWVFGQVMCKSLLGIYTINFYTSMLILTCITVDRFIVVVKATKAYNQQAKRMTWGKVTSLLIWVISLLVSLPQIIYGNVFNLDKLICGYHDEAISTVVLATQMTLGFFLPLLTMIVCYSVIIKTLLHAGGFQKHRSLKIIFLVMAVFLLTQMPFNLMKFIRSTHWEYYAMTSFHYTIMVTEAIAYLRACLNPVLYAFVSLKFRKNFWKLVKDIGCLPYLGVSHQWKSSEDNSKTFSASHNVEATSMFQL

| Compound | pIC50 |
| --- | --- |
| CCOc1cc(NC(=O)C(CO)C2CCOC2)ccc1S(=O)(=O)Nc1cccc(OC(F)(F)F)c1 (centres unmarked) [Example 1.199] | ≥ 6.70 |
| CCOc1cc(NC(=O)C(O)C2CCCOC2)ccc1S(=O)(=O)Nc1cccc(OC(F)(F)F)c1 (centres unmarked) [Example 1.094] | ≥ 6.70 |
| CCOc1cc(NC(=O)c2cccnc2N)ccc1S(=O)(=O)Nc1cccc(OC(F)(F)F)c1 [Example 1.162] | ≥ 6.70 |
| CCOc1cc(NC(=O)C2CCC[C@@H]2O)ccc1S(=O)(=O)Nc1cccc(OC(F)(F)F)c1 (some centres unmarked) [Example 1.185] | 6.12 to 6.70 |
| CCOc1cc(NC(=O)c2ccnn2C)ccc1S(=O)(=O)Nc1cccc(OC(F)(F)F)c1 [Example 1.157] | ≥ 6.70 |
| COc1cc(NC(=O)c2ccnn2C)ccc1S(=O)(=O)Nc1cc(C(F)(F)F)cc(C(F)(F)F)c1 [Example 1.112] | 4.70 to 5.70 |
| CCOc1cc(NC(=O)[C@H](N)C(C)C)ccc1S(=O)(=O)Nc1cccc(OC(F)(F)F)c1 [Example 1.158] | ≥ 6.70 |
| COc1cc(NC(=O)CC2CCNC2)ccc1S(=O)(=O)Nc1cccc(C(F)(F)F)c1 (centres unmarked) [Example 1.214] | 4.70 to 5.70 |
| CCOc1cc(NC(=O)[C@@H](CO)c2ccccc2)ccc1S(=O)(=O)Nc1cccc(OC(F)(F)F)c1C [Example 1.274] | 4.70 to 5.70 |
| C=C(C)CC(CO)C(=O)Nc1ccc(S(=O)(=O)Nc2cccc(OC(F)(F)F)c2)c(OCC)c1 (centres unmarked) [Example 1.352] | ≥ 6.70 |
| COc1cccc(NS(=O)(=O)c2ccc(NC(=O)c3ccnn3C)cc2OC)c1 [Example 1.348] | 5.70 to 6.12 |
| COc1cc(NC(=O)[C@@H](O)C(C)C)ccc1S(=O)(=O)Nc1ccc(C)c(C(F)(F)F)c1 [Example 1.369] | 6.12 to 6.70 |
| CC(C)[C@H](O)C(=O)Nc1ccc(S(=O)(=O)Nc2cccc(OC(F)(F)F)c2)c(Cl)c1 [Example 1.078] | ≥ 6.70 |
| CCOc1cc(NC(=O)C2CC=CC2)ccc1S(=O)(=O)Nc1cccc(OC(F)(F)F)c1 [Example 1.319] | 5.70 to 6.12 |
| CCOc1cc(NC(=O)C(CC2CC=CCC2)C(=O)O)ccc1S(=O)(=O)Nc1cccc(OC(F)(F)F)c1 (centres unmarked) [Example 1.229] | ≥ 6.70 |
| Cc1cc(NC(=O)c2cccnc2C)ccc1S(=O)(=O)Nc1cccc(C(F)(F)F)c1 [Example 1.306] | 5.70 to 6.12 |
| CCOc1cc(NC(=O)C(C(=O)NCCO)C2CCCC2)ccc1S(=O)(=O)Nc1cccc(OC(F)(F)F)c1 (centres unmarked) [Example 1.339] | ≥ 6.70 |
| Cn1nccc1C(=O)Nc1ccc(S(=O)(=O)Nc2cccc(C(F)(F)F)c2)c(Cl)c1 [Example 1.141] | 6.12 to 6.70 |

| Compound | pIC50 |
| --- | --- |
| COc1cc(NC(=O)c2ccnn2C)ccc1S(=O)(=O)Nc1cccc(N(C)C)c1 [Example 1.337] | 5.70 to 6.12 |
| CCOc1cc(NC(=O)C2CCCCN2)ccc1S(=O)(=O)Nc1cccc(OC(F)(F)F)c1 (centres unmarked) [Example 1.300] | 6.12 to 6.70 |
| COc1cc(NC(=O)[C@H]2CCCNC2)ccc1S(=O)(=O)Nc1cccc(C(F)(F)F)c1 [Example 1.323] | 4.70 to 5.70 |
| CCOc1cc(NC(=O)[C@@H](CO)C(C)C)ccc1S(=O)(=O)Nc1cccc(C(F)(F)F)c1 [Example 1.062] | ≥ 6.70 |
| Cn1nccc1C(=O)Nc1ccc(S(=O)(=O)Nc2cccc(C(F)(F)F)c2)c(C#N)c1 [Example 1.187] | 4.70 to 5.70 |
| CCOc1cc(NC(=O)CC(O)c2nccn2C)ccc1S(=O)(=O)Nc1cccc(OC(F)(F)F)c1 (centres unmarked) [Example 1.106] | 4.70 to 5.70 |
| CCOc1cc(NC(=O)[C@H]2CCCC[C@@H]2OC)ccc1S(=O)(=O)Nc1cccc(OC(F)(F)F)c1 [Example 1.307] | 6.12 to 6.70 |
| CCOc1cc(NC(=O)C(C)C(O)C2CCOCC2)ccc1S(=O)(=O)Nc1cccc(OC(F)(F)F)c1 (centres unmarked) [Example 1.072] | 6.12 to 6.70 |
| CCOc1cc(NC(=O)Cc2ccccc2)ccc1S(=O)(=O)Nc1cccc(OC(F)(F)F)c1 [Example 1.097] | ≥ 6.70 |
| CCOc1cc(NC(=O)[C@@H](NC(C)=O)c2ccccc2)ccc1S(=O)(=O)Nc1cccc(OC(F)(F)F)c1 [Example 1.313] | ≥ 6.70 |
| CC(=O)Nc1ccc(S(=O)(=O)Nc2cccc(C(F)(F)F)c2)c(Br)c1 [Example 1.130] | 4.70 to 5.70 |
| CCOc1cc(NC(=O)[C@@H](O)C(C)C)ccc1S(=O)(=O)Nc1cccc(C(C)C)c1 [Example 1.263] | ≥ 6.70 |
| COc1cc(NC(=O)c2ccns2)ccc1S(=O)(=O)Nc1cccc(C(F)(F)F)c1 [Example 1.115] | ≥ 6.70 |
| CCOc1cc(NC(=O)C(CO)c2ccc(F)cc2)ccc1S(=O)(=O)Nc1cccc(OC(F)(F)F)c1 (centres unmarked) [Example 1.204] | ≥ 6.70 |
| CCOc1cc(NC(=O)[C@@H](CO)C2CC2)ccc1S(=O)(=O)Nc1ccc(CC)c(C)c1 [Example 1.135] | ≥ 6.70 |
| C=C(C)CC(C(=O)O)C(=O)Nc1ccc(S(=O)(=O)Nc2cccc(OC(F)(F)F)c2)c(OCC)c1 (centres unmarked) [Example 1.176] | ≥ 6.70 |
| CCOc1cc(NC(=O)[C@@H](CO)c2ccccc2)ccc1S(=O)(=O)Nc1cccc(Cl)c1OC [Example 1.190] | 4.70 to 5.70 |

Further lines, results first:

| pIC50 | Compound |
| --- | --- |
| 4.70 to 5.70 | COc1cc(NC(=O)CC2CCCCCC2)ccc1S(=O)(=O)Nc1cccc(C(F)(F)F)c1 [Example 1.419] |
| 6.12 to 6.70 | COc1cc(NC(=O)C2CC3C=CC2O3)ccc1S(=O)(=O)Nc1cccc(C(F)(F)F)c1 (centres unmarked) [Example 1.565] |
| 6.12 to 6.70 | CCOc1cc(NC(=O)C(O)c2ccc(C)cc2)ccc1S(=O)(=O)Nc1cccc(OC(F)(F)F)c1 (centres unmarked) [Example 1.466] |
| ≥ 6.70 | CCOc1cc(NC(=O)C(CNC(C)=O)c2ccccc2)ccc1S(=O)(=O)Nc1cccc(OC(F)(F)F)c1 (centres unmarked) [Example 1.386] |
| ≥ 6.70 | CCOc1cc(NC(=O)[C@H]2CC=CC[C@@H]2CO)ccc1S(=O)(=O)Nc1cccc(OC(F)(F)F)c1 [Example 1.453] |
| ≥ 6.70 | CCOc1cc(NC(=O)C(CC(C)C)C(=O)O)ccc1S(=O)(=O)Nc1cccc(OC(F)(F)F)c1 (centres unmarked) [Example 1.421] |
| 5.70 to 6.12 | Cc1cc(NC(=O)C2CCCCC2C)ccc1S(=O)(=O)Nc1cccc(C(F)(F)F)c1 (centres unmarked) [Example 1.538] |
| 5.70 to 6.12 | COc1cc(NC(=O)C2CCCCC2C)ccc1S(=O)(=O)Nc1cccc(C(F)(F)F)c1 (centres unmarked) [Example 1.417] |
| 4.70 to 5.70 | COc1cc(NC(=O)CC2CC2)ccc1S(=O)(=O)Nc1cccc(C(F)(F)F)c1 [Example 1.414] |
| 4.70 to 5.70 | CCOc1cc(NC(=O)C2CCCN(C(C)=O)C2)ccc1S(=O)(=O)Nc1cccc(OC(F)(F)F)c1 (centres unmarked) [Example 1.465] |
| 6.12 to 6.70 | Cc1cc(NC(=O)c2ccccc2)ccc1S(=O)(=O)Nc1cccc(C(F)(F)F)c1 [Example 1.447] |
| 4.70 to 5.70 | Cc1cc(NC(=O)C(F)(F)F)ccc1S(=O)(=O)Nc1cccc(C(F)(F)F)c1 [Example 1.467] |
| 5.70 to 6.12 | Cc1cc(NC(=O)c2ccc(Cl)cc2)ccc1S(=O)(=O)Nc1cccc(C(F)(F)F)c1 [Example 1.407] |
| 6.12 to 6.70 | CCOc1cc(NC(=O)CC(O)C2CCOCC2)ccc1S(=O)(=O)Nc1cccc(OC(F)(F)F)c1 (centres unmarked) [Example 1.401] |
| ≥ 6.70 | CCOc1cc(NC(=O)[C@@H](O)C(C)(C)C)ccc1S(=O)(=O)Nc1cccc(OC(F)(F)F)c1 [Example 1.577] |
| 4.70 to 5.70 | CCOc1cc(NC(=O)C2CCNC(=O)C2)ccc1S(=O)(=O)Nc1cccc(OC(F)(F)F)c1 (centres unmarked) [Example 1.475] |
| ≥ 6.70 | COc1cc(NC(=O)c2ccnn2C)ccc1S(=O)(=O)Nc1ccc(C)c(C(F)(F)F)c1 [Example 1.552] |
| ≥ 6.70 | CCOc1cc(NC(=O)[C@@H](N)C2CC2)ccc1S(=O)(=O)Nc1cccc(OC(F)(F)F)c1 [Example 1.393] |
